We go through 43 molecules from US7094909B2, “HIV protease inhibitors, compositions containing the same, their pharmaceutical uses and materials for their synthesis” (priority 2001, dated 2006).

A word on the Ki: it is the equilibrium dissociation constant of an inhibitor or competing ligand from its target. Lower therefore signals a stronger hold on the target.

In one assay the target is T1, HIV-1 protease (Q7S mutant form) (Human immunodeficiency virus type 1 group M subtype B, UniProt P04585, Q495S).
T1 construct: made in house
Put plainly: HIV-1 Protease RET assay. Type of assay: biochemical. The settings on record: Ave. Ki (nM), RET assay, Q7S enzyme, Morrison tight binding fit. As for the experimental part: Ki's for the inhibitors of HIV-1 protease were determined using a resonance energy transfer (RET) assay. […] This enzyme is first partially purified as inclusion bodies from cell lysate. It is then solublized in 8M urea and passed through a Q-Sepharose column (Pharmacia) for further purification. To refold this protein, samples containing Q7S is dialyzed into 50 mM sodium phosphate pH 7.0, 50 mM NaCl, 10 mM DTT, and 10% glycerol.
The commercially available peptide substrate (Molecular Probes Cat. # H-2930) RE(EDANS)SQNYPIVQK(DABCYL)R is used to assess activity and Ki's. This peptide is cleaved quantitatively by HIV-1 Pr at the Tyr-Pro bond. The EDANS fluorophore absorbs at 340 nm and emits at 490 nm. The reaction is carried out in a 96 well plate in a total volume of 100 µL and is run for 12 minutes at 37 C under steady-state conditions with 5 µM substrate and 2 nM active dimer enzyme concentration. The literature value Km for this substrate and enzyme is 103+/−8 µM (See Matayoshi, et al., “Novel Fluorogenic Substrates for Assaying Retroviral Proteases by Resonance Energy Transfer,” Science 247, 954 (1990)). The buffer for this reaction is 0.1M sodium acetate pH 4.8, 1M NaCl, 1 mM EDTA, 5 mM dithiothreitol, 10% dimethyl sulfoxide and 1 mg/ml bovine serum albumin. Inhibition curves are fit using the Morrison tight binding equation.
`CC1(C)SCN(C(=O)[C@@H](O)[C@H](Cc2ccccc2)NC(=O)NCc2ccccc2Cl)C1C(=O)NCc1ccccc1Cl` (stereo partly drawn) [Example B46, 3-{(2S,3S)-3-[3-(2-Chloro-benzyl)-ureido]-2-hydroxy-4-phenyl-butyryl}-5,5-dimethyl-thiazolidine-4-carboxylic acid 2-chloro-benzylamide]: the Ki came to 93 nM. This lies in the double-digit nanomolar range.
On the same count and under the same terms, under `Cc1ccccc1CNC(=O)[C@H]1N(C(=O)C(O)C(Cc2ccccc2)NC(=O)NCc2ccccc2Br)CSC1(C)C` (stereo in doubt) [Example B72, 3-{3-[3-(2-Bromo-benzyl)ureido]-2-hydroxy-4-phenyl-butyryl}-5,5-dimethyl-thiazolidine-4-carboxylic acid 2-methyl-benzylamide] stands 6.6 nM; under `Cc1ccccc1CNC(=O)NC(Cc1ccccc1)C(O)C(=O)N1CSC(C)(C)[C@H]1C(=O)NCc1ccncc1` (stereo partly drawn) [Example B66, 3-{(2S,3S)-2-Hydroxy-3-[3-(2-methyl-benzyl)-ureido]-phenyl-butyryl}-5,5-dimethyl-thiazolidine-4-carboxylic acid (pyridin-4-ylmethyl)-amide], 5.2 nM; under `Cc1ccccc1CNC(=O)N[C@@H](Cc1ccccc1)[C@H](O)C(=O)N1CSC(C)(C)[C@H]1C(=O)NCc1ccccc1C` [Example B62, 3-{(2S,3S)-2-Hydroxy-3-[3-(2-methyl-benzyl)-ureido]-4-phenyl-butyryl}-5,5-dimethyl-thiazolidine-4-carboxylic acid 2-methyl-benzylamide], 4.2 nM.
With `Cc1ccccc1CNC(=O)[C@H]1N(C(=O)C(O)C(Cc2ccccc2)NC(=O)NCc2ccc(F)cc2F)CSC1(C)C` (stereo in doubt) [Example B71, 3-{3-[3-(2,4-Difluoro-benzyl)-ureido]-2-hydroxy-4-phenyl-butyryl}-5,5-dimethyl-thiazolidine-4-carboxylic acid 2-methyl-benzylamide], the Ki came to 6.4 nM.
On to `COc1ccccc1CNC(=O)NC(Cc1ccccc1)C(O)C(=O)N1CSC(C)(C)[C@H]1C(=O)NCc1ccccc1C` (stereo in doubt) [Example B70, 3-{2-Hydroxy-3-[3-(2-methoxy-benzyl)-ureido]-4-phenyl-butyryl}-5,5-dimethyl-thiazolidine-4-carboxylic acid 2-methyl-benzylamide], for which the inhibition constant Ki was 21 nM.
The same measure, in the same setting: to `CC1(C)SCN(C(=O)[C@@H](O)[C@H](Cc2ccccc2)NC(=O)NCc2ccccc2C(F)(F)F)[C@@H]1C(=O)NCc1ccccc1C(F)(F)F` [Example B52, 3-{(2S,3S)-2-Hydroxy-4-phenyl-3-[3-(2-trifluoromethyl-benzyl)-ureido]-butyryl}-5,5-dimethyl-thiazolidine-4-carboxylic acid 2-trifluoromethyl-benzylamide] belongs 120 nM; to `Cc1ccccc1CNC(=O)[C@H]1N(C(=O)C(O)C(Cc2ccccc2)NS(=O)(=O)c2ccc(C#N)cc2)CSC1(C)C` (stereo partly drawn) [Example B58, 3-[(2S,3S)-3-(4-Cyano-benzenesulfonylamino)-2-hydroxy-4-phenyl-butyryl]-5,5-dimethyl-thiazolidine-carboxylic acid 2-methyl-benzylamide], 240 nM.
`Cc1ccccc1CNC(=O)[C@H]1N(C(=O)[C@@H](O)[C@H](Cc2ccccc2)NC(=O)NC(C)C)CSC1(C)C` [Example B17, 3-[(S)-2-Hydroxy-3-(3-isopropyl-ureide)-4-phenyl-butyryl]-5,5-dimethyl-thiazolidine-4carboxylic acid 2-methyl-benzylamide] yielded a Ki of 4.8 nM.

The same assay, now with this note: Ki, unit inferred.
In turn, `Cc1ccccc1CNC(=O)[C@H]1N(C(=O)[C@@H](O)[C@H](Cc2ccccc2)NS(=O)(=O)c2ccccc2)CSC1(C)C` showed a Ki of 152 nM. That is a sub-micromolar value.
`COc1ccc(CNC(=O)N[C@@H](Cc2ccccc2)[C@H](O)C(=O)N2CSC(C)(C)C2C(=O)NCc2ccc(OC)cc2)cc1` (stereo partly shown) returned an inhibition constant Ki of 7.8 nM. Against the preceding molecule, the Ki is about 19-fold lower.
`CCc1cccc(CNC(=O)[C@H]2N(C(=O)[C@@H](O)[C@H](Cc3ccccc3)NC(=O)NCc3ccc(OC)cc3)CSC2(C)C)c1` had a Ki of 59 nM.
Molecule `CCCNC(=O)[C@@H]1CC(F)(F)CN1C(=O)[C@@H](O)[C@H](Cc1ccccc1)NC(=O)c1ccc(C)c(O)c1C` gave a Ki of 108 nM.
The same measure, in the same setting: under `COc1cccc(CNC(=O)[C@H]2N(C(=O)[C@@H](O)[C@H](Cc3ccccc3)NC(=O)C=C(C)C)CSC2(C)C)c1` stands 125 nM.
Still for that read-out and setting: under `Cc1ccccc1CNC(=O)[C@@H]1CC(F)(F)CN1C(=O)[C@@H](O)[C@H](Cc1ccccc1)NC(=O)c1cccn1C` stands 59 nM; under `C#CCOC(=O)N[C@@H](Cc1ccccc1)[C@H](O)C(=O)N1CSC(C)(C)[C@H]1C(=O)NCc1cccc(CC)c1`, 3.8 nM; under `Cc1ccccc1CNC(=O)[C@H]1N(C(=O)[C@@H](O)[C@H](Cc2ccccc2)NC(=O)C2=CCCCC2)CSC1(C)C`, 4.7 nM.
The molecule `Cc1ccccc1CNC(=O)[C@H]1N(C(=O)[C@@H](O)[C@H](Cc2ccccc2)NC(=O)/C=C/c2ccco2)CSC1(C)C` had a Ki of 60 nM.
In the case of `Cc1ccccc1CNC(=O)[C@H]1N(C(=O)[C@@H](O)[C@H](Cc2ccccc2)NC(=O)/C=C/c2cccnc2)CSC1(C)C`, the Ki was 9.9 nM. This Ki is about 6.1-fold lower than that of the molecule before.
`Cc1ccccc1CNC(=O)[C@H]1N(C(=O)[C@@H](O)[C@H](Cc2ccccc2)NC(=O)Oc2ccccc2)CSC1(C)C` gave a Ki of 368 nM. Compared with the last molecule, the Ki is about 37-fold higher.
The molecule `Cc1ccccc1CNC(=O)C1N(C(=O)[C@@H](O)C(Cc2ccccc2)NC(=O)OCc2cccnc2)CSC1(C)C` (stereo partly shown) showed a Ki of 27 nM.
Take `Cc1ccccc1CNC(=O)[C@H]1N(C(=O)[C@@H](O)[C@H](Cc2ccccc2)NC(=O)C2CCNCC2)CSC1(C)C`: the Ki was 45 nM.
Turning to `Cc1ccccc1CNC(=O)[C@H]1N(C(=O)[C@@H](O)[C@H](Cc2ccccc2)NC(=O)COc2cccnc2Cl)CSC1(C)C`, the Ki stood at 7.6 nM.
As for `COc1cccc(CNC(=O)[C@H]2N(C(=O)[C@@H](O)[C@H](Cc3ccccc3)NC(=O)OC(C)(C)C)CSC2(C)C)c1`, the affinity corresponds to a Ki of 68 nM.
Same read-out and setting: under `Cc1ccccc1CCC(=O)C1N(C(=O)[C@@H](O)C(Cc2ccccc2)NC(=O)C2CCC2)CSC1(C)C` (stereo partly shown) stands 4.4 nM.
The same measure, in the same setting: to `CC(C)(C)OC(=O)N[C@@H](Cc1ccccc1)[C@H](O)C(=O)N1CSC(C)(C)[C@H]1C(=O)NCc1ccccc1` belongs 21 nM.
As for `Cc1c(O)cccc1C(=O)N[C@@H](Cc1ccccc1)[C@H](O)C(=O)N1CSC(C)(C)[C@H]1C(=O)NC1(C#N)CC1`, affinity was put at a Ki of 6.2 nM.
Still for that read-out and setting: under `CC#CC(C)OC(=O)NC(Cc1ccccc1)[C@H](O)C(=O)N1CSC(C)(C)[C@H]1C(=O)NCc1ccccc1C` (stereo partly shown) stands 29 nM.
Take `Cc1c(C(=O)N[C@@H](Cc2ccccc2)[C@H](O)C(=O)N2CSC(C)(C)[C@H]2C(=O)N[C@@H]2C=CCCC2)ccc(F)c1O`: the Ki was determined as 17.3 nM.
On the same count and under the same terms, to `Cc1ccccc1CNC(=O)C1N(C(=O)[C@@H](O)[C@H](Cc2ccccc2)NC(=O)c2ccc3ccncc3c2)CSC1(C)C` (stereo partly shown) belongs 3.4 nM.
In the case of `Cc1ccccc1CNC(=O)[C@H]1N(C(=O)[C@@H](O)[C@H](Cc2ccccc2)NC(=O)C2CCCN(C(=O)OC(C)(C)C)C2)CSC1(C)C` (stereo partly shown), the Ki is 117 nM.
As for `Cc1ccccc1CNC(=O)[C@@H]1N(C(=O)[C@@H](O)[C@H](Cc2ccccc2)NC(=O)CSc2c(C)cccc2C)CSC1(C)C`, the Ki came out at 422 nM.
On the same count and under the same terms, under `Cc1ccccc1CNC(=O)[C@H]1N(C(=O)[C@@H](O)[C@H](Cc2ccccc2)NC(=O)COc2cccc3ncccc23)CSC1(C)C` stands 14.2 nM; under `Cc1ccccc1CNC(=O)[C@H]1N(C(=O)[C@@H](O)[C@H](Cc2ccccc2)NC(=O)C(C)CN)CSC1(C)C` (stereo partly shown), 158 nM.
For the molecule `C/C(=C/c1ccccc1)C(=O)N[C@@H](Cc1ccccc1)[C@H](O)C(=O)N1CSC(C)(C)[C@H]1C(=O)NCc1ccccc1C`, the Ki turned out to be 5 nM.
Molecule `C=CC(CC)OC(=O)N[C@@H](Cc1ccccc1)[C@H](O)C(=O)N1CSC(C)(C)[C@H]1C(=O)NCc1ccccc1C` (stereo partly shown) returned a Ki of 92 nM.
As to `Cc1ccccc1CNC(=O)[C@H]1N(C(=O)[C@@H](O)[C@H](Cc2ccccc2)NC(=O)CCCN)CSC1(C)C`, the Ki came out at 51 nM.
`Cc1ccccc1CNC(=O)[C@H]1N(C(=O)[C@@H](O)[C@H](Cc2ccccc2)NC(=O)C(C)CNC(=O)OC(C)(C)C)CSC1(C)C` (stereo partly shown) gave a Ki of 52 nM.
With `Cc1ccccc1CNC(=O)[C@H]1N(C(=O)[C@@H](O)[C@H](Cc2ccccc2)NC(=O)COc2cccnc2C)CSC1(C)C`, affinity was put at a Ki of 17 nM.
In turn, `CC1(C)SCN(C(=O)[C@@H](O)[C@H](Cc2ccccc2)NC(=O)[C@@H]2CCCO2)[C@@H]1C(=O)NC[C@H]1CCCO1` registered an inhibition constant Ki of 30 nM.
For the molecule `Cc1ccccc1CNC(=O)[C@H]1N(C(=O)[C@@H](O)[C@H](Cc2ccccc2)NC(=O)/C=C/c2c(C)cccc2C)CSC1(C)C`, the Ki came to 99 nM.
As for `Cc1ccccc1CNC(=O)[C@H]1N(C(=O)[C@@H](O)[C@H](Cc2ccccc2)NC(=O)Oc2ccc(Cl)cc2)CSC1(C)C`, the Ki turned out to be 468 nM.
Take `Cc1ccccc1CNC(=O)[C@@H]1N(C(=O)[C@@H](O)[C@H](Cc2ccccc2)NC(=O)c2cccc(O)c2C)CSC12CCC2`: the Ki came to 30 nM.
